Experimental data: patent US12421254B2, “KRAS modulators and uses thereof” (Quanta Therapeutics, Inc., priority 2023, dated 2025)

Key:
[1] = biological target: GST-tagged KRAS-G12D (2-169) (Homo sapiens, UniProt P01116, G12D); test: Nucleotide exchange assay (NEA), SOS-mediated, HTRF, KRAS G12D; format: biochemical; details: Table 4; IC50 extracted at 30 min; 20 nM SOScat; read-out: NEA G12D IC50
Procedure, shortened: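 Compound preincubated 1 h at RT with 0.25 nM GST-KRAS-G12D (2-169) and anti-GST Tb donor, then 20 nM SOS1cat (564-1049) and 150 nM GTP-DY-647P1 added; pH 7.3 HEPES buffer with MgCl2 and DTT. HTRF monitored at RT; % inhibition versus DMSO and no-SOS blank, 4-parameter IC50 taken at 30 min.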

[2] = biological target: GST-tagged KRAS-G12V (2-169) (Homo sapiens, UniProt P01116, G12V); test: Nucleotide exchange assay (NEA), SOS-mediated, HTRF, KRAS G12V; format: biochemical; details: Table 4; IC50 extracted at 90 min; 80 nM SOS
Chain of GST-tagged KRAS-G12V (2-169) (P01116 2-169 isoform P01116-2 G12V): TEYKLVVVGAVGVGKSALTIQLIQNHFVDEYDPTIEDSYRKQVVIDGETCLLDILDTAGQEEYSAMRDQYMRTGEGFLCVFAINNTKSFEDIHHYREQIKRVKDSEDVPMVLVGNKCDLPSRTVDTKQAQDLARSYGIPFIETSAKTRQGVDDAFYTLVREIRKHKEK
Procedure, shortened: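 GST-KRAS-G12V (2-169), 0.25 nM, pre-incubated 1 h at RT with compound, then SOS1cat (564-1049) 80 nM and GTP-DY-647P1 150 nM added in HEPES pH 7.3 buffer with MgCl2 and DTT. HTRF via anti-GST Tb cryptate read over 90 min; IC50 from 4-parameter fit at 90 min, blanked to no-SOS reactions.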

[3] = test system: phospho-ERK in GP2D (KRAS-G12D) cells; test: pERK In Cell Western (ICW) assay (Method B), GP2D; format: cell-based
Procedure: pERK ICW is a high throughput screening assay to evaluate the cellular potency of mutant KRAS small molecule inhibitors. KRAS mutant cell lines AGS, GP2D (KRAS-G12D) as well as SW620 (KRAS-G12V) were purchased from ATCC and maintained respectively in RPMI/DMEM/RPMI medium supplemented with 10% fetal bovine serum.
Cells grown in exponential phase were trypsinized, resuspended in fresh media, and viable cells were counted using a cell counter with Trypan Blue (BioRad TC20). Cells were seeded into 384-well plate (Greiner 781091) at density of 5,000 cells/well for AGS and 10,000 cells/well for GP2D/SW620 and allowed to grow overnight in a 37° C. CO2 incubator. The next day, compounds were dispensed into wells with a ½ log, 9-point serial dilution using a Tecan D300e dispenser and incubated for 3 hours in a 37° C. CO2 incubator. Cells were then fixed with paraformaldehyde (Electron Microscopy Sciences, 15710, 4% final concentration) for 30 min, permeabilized with wash buffer (1×PBS+0.1% Triton X-100) for 30 min and blocked with Odyssey blocking buffer (Li—COR 927-70001) for 1 hour, all at room temperature (RT). Phospho-ERK antibody (CST 4370L) was diluted 1:500 in Odyssey T20 (PBS) antibody diluent (Li—COR 927-75001) and incubated with cells overnight at 4° C. The next day, plates were washed 5× with wash buffer, incubated with IRDye 800 CW, Goat anti-Rabbit secondary antibody (Li—COR 926-32211, 1:800) and DRAQ5 (CST 4084L, 1:5,000) diluted in Odyssey T20 (PBS) antibody diluent for 1 hour, washed 5×, and imaged on an Odyssey CLx imaging system.
For data analysis, signal intensities from 800 (phosphor-ERK) and 700 (DRAQ5) channels were extracted, and phospho-ERK signals were normalized to DRAQ5 signals for each well and percent of blank control values were computed. Data were then imported into Graphpad Prism to compute half-maximal inhibitory concentrations (IC50) using a 4-parameter variable slope model. Z-factor for each plate was computed from signals derived from wells treated with either DMSO or 5 μM of control compound. AGS pERK ICW (Method B) IC50 (uM) values of selected compounds are depicted in Table 2 with compounds having a value ≥0.001 uM to 0.01 uM as ++++; ≥0.01 uM to 0.1 uM as +++; ≥0.1 uM to 1 uM as ++; ≥1 uM to 10 uM as + and ≥10 uM as NA.

[4] = test system: phospho-ERK in SW620 (KRAS-G12V) cells; test: pERK In Cell Western (ICW) assay (Method B), SW620; format: cell-based
Procedure, shortened: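 SW620 (KRAS-G12V), GP2D (KRAS-G12D) and AGS cells, seeded overnight, were exposed to compounds (½-log, 9-point) for 3 h at 37°C, then fixed and stained for phospho-ERK. Infrared imaging; pERK normalized to DRAQ5 DNA stain, expressed as percent of blank control, IC50 by 4-parameter fit.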

[5] = Homo sapiens, SW-620, 3 h, Table 4

Chain of GST-tagged KRAS-G12D (2-169) (P01116 2-169 isoform P01116-2 G12D): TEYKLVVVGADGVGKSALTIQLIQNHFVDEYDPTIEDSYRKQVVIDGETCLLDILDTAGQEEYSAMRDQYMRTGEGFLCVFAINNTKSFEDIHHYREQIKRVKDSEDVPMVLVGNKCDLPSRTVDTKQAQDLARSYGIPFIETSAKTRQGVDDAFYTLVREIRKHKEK

| Compound | IC50 [1] | IC50 [2] | IC50 ([3]; GP2d, 3 h, Table 4) | IC50 [4, 5] | IC50 ([3]; Table 4, 3 hours) | IC50 ([4]; Table 4, 3 hours) |
| --- | --- | --- | --- | --- | --- | --- |
| CCN(c1nc(OCC23CCC(COC2)N3)nc(N2CC3(C2)SCc2sc(N)c(C#N)c23)n1)[C@H](C)c1cccnc1N (stereo partly drawn) [Compound 204, 1-(4-((3-oxa-8-azabicyclo[3.2.1]octan-1-yl)methoxy)-6-(((R)-1-(2-aminopyridin-3-yl)ethyl)(ethyl)amino)-1,3,5-triazin-2-yl)-2′-amino-6′H-spiro[azetidine-3,4′-thieno[3,4-b]thiophene]-3′-carbonitrile] | 0.01 to 0.1 µM | < 0.01 µM | 0.1 to 1 µM | 0.01 to 0.1 µM |  |  |
| CC(=O)C(O)(O)C(=O)N1[C@@H]2CC[C@H]1CN(c1nc(OC[C@@]34CCCN3C[C@H](F)C4)nc(N3CC4(C3)SCc3sc(N)c(C#N)c34)n1)C2 [Compound 159, 2-amino-1′-[4-[(1R,5S)-8-(2,2-dihydroxy-3-oxo-butanoyl)-3,8-diazabicyclo[3.2.1]octan-3-yl]-6-[[(2R,8S)-2-fluoro-1,2,3,5,6,7-hexahydropyrrolizin-8-yl]methoxy]-1,3,5-triazin-2-yl]spiro[6H-thieno[3,4-b]thiophene-4,3′-azetidine]-3-carbonitrile] | 0.01 to 0.1 µM | 0.1 to 1 µM | 0.1 to 1 µM | 1 to 20 µM |  |  |
| CC(c1ccnnc1N)N(C)c1nc(OC[C@@]23CCCN2C[C@H](F)C3)nc(N2CC3(CCc4sc(N)c(C#N)c43)C2)n1 (stereo partly drawn) [Compound 109, 2-amino-1′-[4-[1-(3-aminopyridazin-4-yl)ethyl-methyl-amino]-6-[[(2R,8S)-2-fluoro-1,2,3,5,6,7-hexahydropyrrolizin-8-yl]methoxy]-1,3,5-triazin-2-yl]spiro[5,6-dihydrocyclopenta[b]thiophene-4,3′-azetidine]-3-carbonitrile] | < 0.01 µM | < 0.01 µM | 0.1 to 1 µM | 0.01 to 0.1 µM |  |  |
| N#Cc1c(N)sc2c1C1(CC2)CN(c2nc(OC[C@@]34CCCN3C[C@H](F)C4)nc(N3CCCCC(O)C3)n2)C1 (stereo partly drawn) [Compound 50, 2-amino-1′-[4-(3-hydroxyazepan-1-yl)-6-[[(2R,8S)-2-fluoro-1,2,3,5,6,7-hexahydropyrrolizin-8-yl]methoxy]-1,3,5-triazin-2-yl]spiro[5,6-dihydrocyclopenta[b]thiophene-4,3′-azetidine]-3-carbonitrile] | 0.01 to 0.1 µM | 0.01 to 0.1 µM | 0.1 to 1 µM | 0.1 to 1 µM |  |  |
| CCN(c1nc(OCC23CCCN2CCC3)nc(N2CC3(C2)SCc2sc(N)c(C#N)c23)n1)[C@H](C)c1cccnc1N [Compound 206, (R)-2′-amino-1-(4-((1-(2-aminopyridin-3-yl)ethyl)(ethyl)amino)-6-((tetrahydro-1H-pyrrolizin-7a(5H)-yl)methoxy)-1,3,5-triazin-2-yl)-6′H-spiro[azetidine-3,4′-thieno[3,4-b]thiophene]-3′-carbonitrile] | < 0.01 µM | < 0.01 µM | < 0.01 µM | 0.01 to 0.1 µM |  |  |
| N#CCC1(O)CCCN(c2nc(OCC3(CN4CCOCC4)CC3)nc(N3CC4(CCc5sc(N)c(C#N)c54)C3)n2)C1 (stereo not drawn) [Compound 101, 2-amino-1′-[4-[3-(cyanomethyl)-3-hydroxy-1-piperidyl]-6-[[1-(morpholinomethyl)cyclopropyl]methoxy]-1,3,5-triazin-2-yl]spiro[5,6-dihydrocyclopenta[b]thiophene-4,3′-azetidine]-3-carbonitrile] | 0.01 to 0.1 µM | < 0.01 µM | 0.1 to 1 µM | 1 to 20 µM |  |  |
| CC(c1nsnc1N)N(C)c1nc(OC[C@@]23CCCN2C[C@H](F)C3)nc(N2CC3(C2)SCc2sc(N)c(C#N)c23)n1 (single isomer, unassigned) [Compound 184A, 2-amino-1′-[4-[[(1*)-1-(4-amino-1,2,5-thiadiazol-3-yl)ethyl]-methyl-amino]-6-[[(2R,8S)-2-fluoro-1,2,3,5,6,7-hexahydropyrrolizin-8-yl]methoxy]-1,3,5-triazin-2-yl]spiro[6H-thieno[2,3-c]thiophene-4,3′-azetidine]-3-carbonitrile] | < 0.01 µM | < 0.01 µM | 0.01 to 0.1 µM | < 0.01 µM |  |  |
| CN(C)CC1(COc2nc(N3CC4(C3)SCc3sc(N)c(C#N)c34)nc(N3CCC[C@@](C)(O)C3)n2)CC1(F)F (stereo partly drawn) [Compound 104, 2-amino-1′-[4-[[1-[(dimethylamino)methyl]-2,2-difluoro-cyclopropyl]methoxy]-6-[(3R)-3-hydroxy-3-methyl-1-piperidyl]-1,3,5-triazin-2-yl]spiro[6H-thieno[2,3-c]thiophene-4,3′-azetidine]-3-carbonitrile] | < 0.01 µM | < 0.01 µM | < 0.01 µM | 0.01 to 0.1 µM |  |  |
| CCN(c1nc(OC[C@@]23CCCN2C[C@H](F)C3)nc(N2CC3(CCc4sc(N)c(C#N)c43)C2)n1)[C@H](C)c1cccnc1N [Compound 173, 2-amino-1′-[4-[[(1R)-1-(2-amino-3-pyridyl)ethyl]-ethyl-amino]-6-[[(2R,8S)-2-fluoro-1,2,3,5,6,7-hexahydropyrrolizin-8-yl]methoxy]-1,3,5-triazin-2-yl]spiro[5,6-dihydrocyclopenta[b]thiophene-4,3′-azetidine]-3-carbonitrile] | < 0.01 µM | < 0.01 µM | < 0.01 µM | < 0.01 µM |  |  |
| CCN(c1nc(OC[C@@]23CCCN2C[C@H](F)C3)nc(N2CC3(C2)SCc2sc(N)c(C#N)c23)n1)C(C)c1nccnc1N (single isomer, unassigned) [Compound 168B, 2-amino-1′-[4-[[(1*)-1-(3-aminopyrazin-2-yl)ethyl]-ethyl-amino]-6-[[(2R,8S)-2-fluoro-1,2,3,5,6,7-hexahydropyrrolizin-8-yl]methoxy]-1,3,5-triazin-2-yl]spiro[6H-thieno[3,4-b]thiophene-4,3′-azetidine]-3-carbonitrile] | 0.01 to 0.1 µM | < 0.01 µM |  |  | 0.1 to 1 µM | 0.01 to 0.1 µM |
| N#Cc1c(N)sc2c1C1(CC2)CN(c2nc(OC[C@@]34CCCN3C[C@H](F)C4)nc(N3CCCCC3C(N)=O)n2)C1 (stereo partly drawn) [Compound 40, 1-[4-(2-amino-3-cyano-spiro[5,6-dihydrocyclopenta[b]thiophene-4,3′-azetidine]-1′-yl)-6-[[(2R,8S)-2-fluoro-1,2,3,5,6,7-hexahydropyrrolizin-8-yl]methoxy]-1,3,5-triazin-2-yl]piperidine-2-carboxamide] | 0.1 to 1 µM | 1 to 20 µM | 1 to 20 µM | ≥ 20 µM |  |  |
| C[C@@]1(O)CCCN(c2nc(OC[C@@]34CCCN3C[C@H](F)C4)nc(N3CC4(C3)c3c(sc(N)c3C#N)CC3CC34)n2)C1 (stereo partly drawn) [Compound 51, 2-amino-1′-[4-[[(2R,8S)-2-fluoro-1,2,3,5,6,7-hexahydropyrrolizin-8-yl]methoxy]-6-[(3R)-3-hydroxy-3-methyl-1-piperidyl]-1,3,5-triazin-2-yl]spiro[4a,5,5a,6-tetrahydrocyclopropa[f]benzothiophene-4,3′-azetidine]-3-carbonitrile] | 0.01 to 0.1 µM | 0.01 to 0.1 µM | 0.1 to 1 µM | 1 to 20 µM |  |  |
